T1: OATP1B1*1a (Homo sapiens, UniProt Q9Y6L6)
T1 sequence (Q9Y6L6 1-691): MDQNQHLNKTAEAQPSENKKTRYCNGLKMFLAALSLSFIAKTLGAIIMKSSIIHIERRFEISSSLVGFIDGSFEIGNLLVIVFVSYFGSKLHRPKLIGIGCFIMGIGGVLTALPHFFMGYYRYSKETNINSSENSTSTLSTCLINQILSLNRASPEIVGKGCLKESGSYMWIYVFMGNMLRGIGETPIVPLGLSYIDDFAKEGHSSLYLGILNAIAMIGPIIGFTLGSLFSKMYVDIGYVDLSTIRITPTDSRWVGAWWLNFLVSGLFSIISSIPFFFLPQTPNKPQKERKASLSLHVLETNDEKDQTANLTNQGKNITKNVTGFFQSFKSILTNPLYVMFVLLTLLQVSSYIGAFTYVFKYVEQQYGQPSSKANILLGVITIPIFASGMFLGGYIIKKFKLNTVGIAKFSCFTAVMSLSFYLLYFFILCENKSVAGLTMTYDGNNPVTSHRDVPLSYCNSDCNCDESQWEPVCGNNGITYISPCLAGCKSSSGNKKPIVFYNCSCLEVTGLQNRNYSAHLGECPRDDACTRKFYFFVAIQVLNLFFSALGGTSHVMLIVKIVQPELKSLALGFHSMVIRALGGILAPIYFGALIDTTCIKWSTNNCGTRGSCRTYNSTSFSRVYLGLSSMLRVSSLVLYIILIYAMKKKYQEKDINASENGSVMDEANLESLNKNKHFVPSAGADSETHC

T2: OATP1B1*5 (Homo sapiens, UniProt Q9Y6L6, V174A)
T2 sequence (Q9Y6L6 1-691 V174A): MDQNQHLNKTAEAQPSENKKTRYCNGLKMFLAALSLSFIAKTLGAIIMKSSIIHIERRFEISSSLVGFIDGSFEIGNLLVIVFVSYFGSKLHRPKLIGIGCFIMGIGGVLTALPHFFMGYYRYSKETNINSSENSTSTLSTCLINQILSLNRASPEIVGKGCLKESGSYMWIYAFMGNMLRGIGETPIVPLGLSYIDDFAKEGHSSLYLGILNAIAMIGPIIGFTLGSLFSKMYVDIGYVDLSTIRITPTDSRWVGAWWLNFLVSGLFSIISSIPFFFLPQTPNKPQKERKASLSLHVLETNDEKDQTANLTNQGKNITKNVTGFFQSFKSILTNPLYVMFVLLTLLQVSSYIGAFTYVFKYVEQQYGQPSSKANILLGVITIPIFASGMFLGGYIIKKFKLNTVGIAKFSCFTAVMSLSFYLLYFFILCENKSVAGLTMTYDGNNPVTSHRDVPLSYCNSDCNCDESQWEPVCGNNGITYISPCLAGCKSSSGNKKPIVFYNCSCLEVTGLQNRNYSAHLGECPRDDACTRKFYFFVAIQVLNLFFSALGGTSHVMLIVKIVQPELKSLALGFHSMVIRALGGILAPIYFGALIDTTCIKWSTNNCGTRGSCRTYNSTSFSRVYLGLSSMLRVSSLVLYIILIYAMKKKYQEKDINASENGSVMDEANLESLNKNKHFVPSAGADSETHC


How the values were obtained:
OATP1B1*1a = target: T1, OATP1B1*1a; test: inhibition of rosuvastatin uptake in OATP1B1*1a-HEK293T cells, LC/MS; type: cell-based
OATP1B1*5 = target: T2, OATP1B1*5; test: inhibition of rosuvastatin uptake in OATP1B1*5-HEK293T cells, LC/MS; type: cell-based
[1] = substrate: CC(C)c1nc(N(C)S(C)(=O)=O)nc(-c2ccc(F)cc2)c1/C=C/[C@@H](O)C[C@@H](O)CC(=O)O; test: concentration-dependent uptake kinetics; type: cell-based, Homo sapiens

Row | IC50 (OATP1B1*1a) | IC50 (OATP1B1*5) | Molecule | Km [1]
1 | 6.25 ± 0.42 µM | 6.07 ± 0.57 µM | C[C@H]1[C@H](C)CC[C@]2(C(=O)O)CC[C@]3(C)C(=CC[C@@H]4[C@@]5(C)CC[C@H](O)C(C)(C)[C@@H]5CC[C@]43C)[C@H]12 [UA, 3b-hydroxy-urs-12-en-28-oic-acid] | –
2 | – | – | OATP1B1*1a (Homo sapiens) (protein) MDQNQHLNKTAEAQPSENKKTRYCNGLKMFLAALSLSFIAKTLGAIIMKSSIIHIERRFEISSSLVGFIDGSFEIGNLLVIVFVSYFGSKLHRPKLIGIGCFIMGIGGVLTALPHFFMGYYRYSKETNINSSENSTSTLSTCLINQILSLNRASPEIVGKGCLKESGSYMWIYVFMGNMLRGIGETPIVPLGLSYIDDFAKEGHSSLYLGILNAIAMIGPIIGFTLGSLFSKMYVDIGYVDLSTIRITPTDSRWVGAWWLNFLVSGLFSIISSIPFFFLPQTPNKPQKERKASLSLHVLETNDEKDQTANLTNQGKNITKNVTGFFQSFKSILTNPLYVMFVLLTLLQVSSYIGAFTYVFKYVEQQYGQPSSKANILLGVITIPIFASGMFLGGYIIKKFKLNTVGIAKFSCFTAVMSLSFYLLYFFILCENKSVAGLTMTYDGNNPVTSHRDVPLSYCNSDCNCDESQWEPVCGNNGITYISPCLAGCKSSSGNKKPIVFYNCSCLEVTGLQNRNYSAHLGECPRDDACTRKFYFFVAIQVLNLFFSALGGTSHVMLIVKIVQPELKSLALGFHSMVIRALGGILAPIYFGALIDTTCIKWSTNNCGTRGSCRTYNSTSFSRVYLGLSSMLRVSSLVLYIILIYAMKKKYQEKDINASENGSVMDEANLESLNKNKHFVPSAGADSETHC | 19.87 ± 5.96 µM
3 | – | – | OATP1B1*5 (Homo sapiens; V174A) (protein) MDQNQHLNKTAEAQPSENKKTRYCNGLKMFLAALSLSFIAKTLGAIIMKSSIIHIERRFEISSSLVGFIDGSFEIGNLLVIVFVSYFGSKLHRPKLIGIGCFIMGIGGVLTALPHFFMGYYRYSKETNINSSENSTSTLSTCLINQILSLNRASPEIVGKGCLKESGSYMWIYAFMGNMLRGIGETPIVPLGLSYIDDFAKEGHSSLYLGILNAIAMIGPIIGFTLGSLFSKMYVDIGYVDLSTIRITPTDSRWVGAWWLNFLVSGLFSIISSIPFFFLPQTPNKPQKERKASLSLHVLETNDEKDQTANLTNQGKNITKNVTGFFQSFKSILTNPLYVMFVLLTLLQVSSYIGAFTYVFKYVEQQYGQPSSKANILLGVITIPIFASGMFLGGYIIKKFKLNTVGIAKFSCFTAVMSLSFYLLYFFILCENKSVAGLTMTYDGNNPVTSHRDVPLSYCNSDCNCDESQWEPVCGNNGITYISPCLAGCKSSSGNKKPIVFYNCSCLEVTGLQNRNYSAHLGECPRDDACTRKFYFFVAIQVLNLFFSALGGTSHVMLIVKIVQPELKSLALGFHSMVIRALGGILAPIYFGALIDTTCIKWSTNNCGTRGSCRTYNSTSFSRVYLGLSSMLRVSSLVLYIILIYAMKKKYQEKDINASENGSVMDEANLESLNKNKHFVPSAGADSETHC | 10.05 ± 4.02 µM
